Patent US20220340875A1, “METHODS OF CULTURING AND/OR EXPANDING STEM CELLS AND/OR LINEAGE COMMITTED PROGENITOR CELLS USING AMIDO COMPOUNDS” (IDEAYA BIOSCIENCES, INC., priority 2018, published 2022)

Molecular target: T1, hAhR (Homo sapiens, UniProt P35869)
T1 construct: Stably integrated DRE-luciferase cell lines were generated by transducing the both cell lines with Cignal XRE luciferase reporter (Qiagen) lentiviral particles; endogenous in cells
T1 sequence (P35869 11-848): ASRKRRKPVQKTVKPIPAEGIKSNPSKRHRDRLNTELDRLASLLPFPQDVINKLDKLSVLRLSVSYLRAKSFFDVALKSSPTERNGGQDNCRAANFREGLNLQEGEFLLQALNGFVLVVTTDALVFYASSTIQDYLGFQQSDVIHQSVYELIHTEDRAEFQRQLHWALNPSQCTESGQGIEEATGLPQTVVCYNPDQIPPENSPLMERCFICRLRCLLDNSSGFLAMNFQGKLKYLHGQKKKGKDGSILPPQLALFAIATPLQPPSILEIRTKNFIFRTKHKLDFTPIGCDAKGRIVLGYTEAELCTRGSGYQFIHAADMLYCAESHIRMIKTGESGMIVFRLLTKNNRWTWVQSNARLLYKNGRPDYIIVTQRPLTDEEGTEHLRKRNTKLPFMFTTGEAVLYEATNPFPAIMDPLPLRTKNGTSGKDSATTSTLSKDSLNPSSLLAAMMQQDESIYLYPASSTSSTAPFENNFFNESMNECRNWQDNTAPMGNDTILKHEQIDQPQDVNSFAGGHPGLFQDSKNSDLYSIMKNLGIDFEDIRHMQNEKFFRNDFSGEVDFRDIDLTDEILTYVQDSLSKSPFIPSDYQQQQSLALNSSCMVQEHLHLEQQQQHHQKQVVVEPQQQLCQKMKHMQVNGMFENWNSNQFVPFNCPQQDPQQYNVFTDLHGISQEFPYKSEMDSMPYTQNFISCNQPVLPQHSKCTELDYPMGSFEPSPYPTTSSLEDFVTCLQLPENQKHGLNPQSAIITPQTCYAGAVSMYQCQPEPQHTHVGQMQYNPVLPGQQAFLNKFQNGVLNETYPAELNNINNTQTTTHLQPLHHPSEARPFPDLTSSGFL
Assay: AhR DRE-luciferase reporter transcriptional assay, antagonist mode (TCDD-induced)
Assay type: cell-based
Conditions: HEPG2 DRE-Luc cells, 3 nM TCDD, 24 hour incubation, relative IC50
Method in brief: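 HepG2 cells carrying a stably integrated DRE-luciferase reporter, in OptiMEM with 0.5% FBS; semi-log compound doses added with 3 nM TCDD, 24 h incubation, firefly luciferase read-out. Percent maximal activity normalised between vehicle ± TCDD; relative IC50 taken as half-reduction between curve plateaus.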

First: Cc1cc(-c2ccc3cnccc3n2)ccc1NC(=O)c1ccnn1C [Example 013, 1-methyl-N-(2-methyl-4-(1,6-naphthyridin-2-yl)phenyl)-1H-pyrazole-5-carboxamide]
Second: Cc1cc(-c2ccc3cc(Cl)ccc3n2)ccc1NC(=O)c1ccnn1C [Example 065, N-(4-(6-Chloroquinolin-2-yl)-2-methylphenyl)-1-methyl-1H-pyrazole-5-carboxamide]
The IC50 of the first is higher: 1 to 10 µM for the first, 0.2 to 0.5 µM for the second. The second is the more potent here.

First: Cc1cc(-c2ccc3cc(C#N)ccc3n2)ccc1NC(=O)c1ccnn1C [Example 073, N-(4-(6-cyanoquinolin-2-yl)-2-methylphenyl)-1-methyl-1H-pyrazole-5-carboxamide]
Second: Cc1cc(-c2ccc3cc(C(N)=O)ccc3n2)ccc1NC(=O)c1ccnn1C [Example 074, 2-(3-methyl-4-(1-methyl-1H-pyrazole-5-carboxamido)phenyl)quinoline-6-carboxamide]
The IC50 of the first is lower: less than 0.2 µM for the first, 1 to 10 µM for the second.

Compared with `Cc1cc(-c2ccc3cnn(C)c3c2)ccc1NC(=O)c1ccnn1C` [Example 090, 1-Methyl-N-(2-methyl-4-(1-methyl-1H-indazol-6-yl)phenyl)-1H-pyrazole-5-carboxamide], `Cc1cc(-c2ccc3cc(F)cc(Cl)c3n2)ccc1NC(=O)c1ccnn1C` [Example 049, N-(4-(8-chloro-6-fluoroquinolin-2-yl)-2-methylphenyl)-1-methyl-1H-pyrazole-5-carboxamide] is lower in IC50: 1 to 10 µM for the first, 0.2 to 0.5 µM for the second.

`Cc1cc(-c2ccc3cc(F)ccc3n2)cnc1NC(=O)c1ccnn1C` [Example 042, N-(5-(6-fluoroquinolin-2-yl)-3-methylpyridin-2-yl)-1-methyl-1H-pyrazole-5-carboxamide] and `Cn1nccc1C(=O)Nc1ccc(-c2ccc3cc(F)ccc3n2)cc1F` [Example 066, N-(2-fluoro-4-(6-fluoroquinolin-2-yl)phenyl)-1-methyl-1H-pyrazole-5-carboxamide] fall in the same range of IC50: 0.5 to 1 µM for the first, 0.5 to 1 µM for the second.

`Cc1c(-c2ncc3cc(C(F)(F)F)ccc3n2)ccc(N(C)C(=O)c2ccnn2C)c1F` [Example 114, N-(2-fluoro-3-methyl-4-(6-(trifluoromethyl)quinazolin-2-yl)phenyl)-N,1-dimethyl-1H-pyrazole-5-carboxamide] and `Cc1cc(N(C)C(=O)c2ccnn2C)c(C)cc1-c1ncc2nc(C(F)(F)F)ccc2n1` [Example 188, N-(2,5-dimethyl-4-(6-(trifluoromethyl)pyrido[3,2-d]pyrimidin-2-yl)phenyl)-N,1-dimethyl-1H-pyrazole-5-carboxamide] cannot be ordered by IC50: less than 0.2 µM for the first, less than 0.2 µM for the second.

`Cc1cc(-c2ccc3cc(C(F)(F)F)ccc3n2)ccc1NC(=O)C(F)(F)F` [Example 080, 2,2,2-trifluoro-N-(2-methyl-4-(6-(trifluoromethyl)quinolin-2-yl)phenyl)acetamide] and `Cc1cc(-c2ccc3cc(C(F)(F)F)ccc3n2)ccc1NC(=O)c1ccn[nH]1` [Example 204, N-[2-methyl-4-[6-(trifluoromethyl)quinolin-2-yl]phenyl]-1H-pyrazole-5-carboxamide] fall in the same range of IC50: 1 to 10 µM for the first, 1 to 10 µM for the second.

`Cc1cc(C(F)(F)F)nc2cnc(-c3ccc(NC(=O)c4ccnn4C)c(F)c3)nc12` [Example 163, N-[2-fluoro-4-[8-methyl-6-(trifluoromethyl)pyrido[3,2-d]pyrimidin-2-yl]phenyl]-1-methyl-1H-pyrazole-5-carboxamide] and `Cc1cc(-c2ncc3nc(C(F)(F)F)cc(C)c3n2)c(F)cc1N(C)C(=O)c1ccnn1C` [Example 181, N-(5-fluoro-2-methyl-4-(8-methyl-6-(trifluoromethyl)pyrido[3,2-d]pyrimidin-2-yl)phenyl)-N,1-dimethyl-1H-pyrazole-5-carboxamide] cannot be ordered by IC50: less than 0.2 µM for the first, less than 0.2 µM for the second.

`Cc1cc(-c2ncc3cc(C(F)(F)F)ccc3n2)ccc1NC(=O)c1nn(C)cc1C` [Example 216, 1,4-dimethyl-N-(2-methyl-4-(6-(trifluoromethyl)quinazolin-2-yl)phenyl)-1H-pyrazole-3-carboxamide] and `Cc1cc(C(=O)Nc2ccc(-c3ncc4cc(C(F)(F)F)ccc4n3)cc2C)c(C)cn1` [Example 125, 2,5-dimethyl-N-(2-methyl-4-(6-(trifluoromethyl)quinazolin-2-yl)phenyl)isonicotinamide] cannot be ordered by IC50: less than 0.2 µM for the first, less than 0.2 µM for the second.

First: Cc1cc(-c2ncc3cc(C(F)(F)F)ccc3n2)ccc1N(C)C(=O)c1ncn[nH]1 [Example 134, N-methyl-N-(2-methyl-4-(6-(trifluoromethyl)quinazolin-2-yl)phenyl)-1H-1,2,4-triazole-5-carboxamide]
Second: Cc1cc(-c2ncc3cc(C(F)(F)F)ccc3n2)ccc1N(C)C(=O)c1nnn[nH]1 [Example 133, N-methyl-N-(2-methyl-4-(6-(trifluoromethyl)quinazolin-2-yl)phenyl)-1H-tetrazole-5-carboxamide]
The IC50 of the first is lower: 0.2 to 0.5 µM for the first, 1 to 10 µM for the second.

`Cc1cc(-c2ncc3cc(C(F)(F)F)ccc3n2)ccc1N(C)C(=O)c1cc(C(N)=O)nn1C` [Example 222, N5,1-dimethyl-N5-(2-methyl-4-(6-(trifluoromethyl)quinazolin-2-yl)phenyl)-1H-pyrazole-3,5-dicarboxamide] and `Cc1cc(-c2ncc3cc(C(F)(F)F)ccc3n2)ccc1N(C)C(=O)c1ccnc(C(N)=O)c1` [Example 152, N4-methyl-N4-(2-methyl-4-(6-(trifluoromethyl)quinazolin-2-yl)phenyl)pyridine-2,4-dicarboxamide] cannot be ordered by IC50: less than 0.2 µM for the first, less than 0.2 µM for the second.

`COc1cnccc1C(=O)Nc1ccc(-c2ncc3nc(C(F)(F)F)cc(C)c3n2)cc1C` [Example 184, 3-methoxy-N-(2-methyl-4-(8-methyl-6-(trifluoromethyl)pyrido[3,2-d]pyrimidin-2-yl)phenyl)isonicotinamide] and `Cc1cc(-c2ncc3nc(C(F)(F)F)cc(C)c3n2)ccc1N(C)C(=O)c1ccnc(C(N)=O)c1` [Example 168, N4-methyl-N4-(2-methyl-4-(8-methyl-6-(trifluoromethyl)pyrido[3,2-d]pyrimidin-2-yl)phenyl)pyridine-2,4-dicarboxamide] cannot be ordered by IC50: less than 0.2 µM for the first, less than 0.2 µM for the second.

`Cc1cc(-c2ncc3cc(C(F)(F)F)ccc3n2)ccc1N(C)C(=O)c1ccncc1` [Example 116, N-methyl-N-(2-methyl-4-(6-(trifluoromethyl)quinazolin-2-yl)phenyl)isonicotinamide] and `Cc1cc(-c2ncc3cc(C(F)(F)F)ccc3n2)ccc1NC(=O)c1ccncc1` [Example 115, N-(2-methyl-4-(6-(trifluoromethyl)quinazolin-2-yl)phenyl)isonicotinamide] cannot be ordered by IC50: less than 0.2 µM for the first, less than 0.2 µM for the second.

`Cc1cc(-c2ncc3cc(C(F)(F)F)cc(C)c3n2)ccc1N(C)C(=O)c1ccnn1C` [Example 111, N,1-dimethyl-N-(2-methyl-4-(8-methyl-6-(trifluoromethyl)quinazolin-2-yl)phenyl)-1H-pyrazole-5-carboxamide] and `Cc1cc(-c2ccc3nc(C(F)(F)F)cc(C)c3n2)ccc1N(C)C(=O)c1ccnn1C` [Example 106, N,1-dimethyl-N-(2-methyl-4-(8-methyl-6-(trifluoromethyl)-1,5-naphthyridin-2-yl)phenyl)-1H-pyrazole-5-carboxamide] cannot be ordered by IC50: less than 0.2 µM for the first, less than 0.2 µM for the second.

Compared with `Cc1cc(-c2ncc3cc(C(F)(F)F)ccc3n2)ccc1N(C)C(=O)c1ncncc1C` [Example 124, N,5-dimethyl-N-(2-methyl-4-(6-(trifluoromethyl)quinazolin-2-yl)phenyl)pyrimidine-4-carboxamide], `Cc1cc(-c2ncc3nc(C(F)(F)F)cc(C)c3n2)ccc1N(C)C(=O)c1cc(C(=O)O)nn1CC#N` [Example 197, 1-(cyanomethyl)-5-(methyl(2-methyl-4-(8-methyl-6-(trifluoromethyl)-pyrido[3,2-d]pyrimidin-2-yl)phenyl)carbamoyl)-1H-pyrazole-3-carboxylic acid] is higher in IC50: less than 0.2 µM for the first, 1 to 10 µM for the second. The first is the more potent here.

Compared with `Cc1cc(-c2ccc3cccc(Cl)c3n2)ccc1NC(=O)c1ccnn1C` [Example 012, N-(4-(8-chloroquinolin-2-yl)-2-methylphenyl)-1-methyl-1H-pyrazole-5-carboxamide], `Cc1cc(-c2ccc3cc(F)ccc3n2)ccc1NC(=O)c1ncco1` [Example 039, N-(4-(6-fluoroquinolin-2-yl)-2-methylphenyl)oxazole-2-carboxamide] is higher in IC50: less than 0.2 µM for the first, 0.5 to 1 µM for the second.

First: Cc1cc(-c2ccc3cc(F)ccc3n2)ccc1NC(=O)c1cccnn1 [Example 031, N-(4-(6-fluoroquinolin-2-yl)-2-methylphenyl)pyridazine-3-carboxamide]
Second: Cc1cc(-c2ccc3cc(C4CC4)ccc3n2)ccc1N(C)C(=O)c1ccnn1C [Example 069, N-(4-(6-cyclopropylquinolin-2-yl)-2-methylphenyl)-N,1-dimethyl-1H-pyrazole-5-carboxamide]
The IC50 of the first is lower: 0.5 to 1 µM for the first, 1 to 10 µM for the second.
